For series [1], the target named is T1, ABCB1, human P-glycoprotein (Pgp) (Homo sapiens, UniProt P08183).
T1 construct: host or cells: MDCKII cells
Briefly: In vitro determination of efflux by Pgp; bi-directional transport across MDCKII cells. The class given is in vitro ADME. The note with it: MDCKII cells expressing human ABCB1, 5 μM substrate, 60 min, B-A/A-B Papp ratios with/without inhibitor. As to the method: In Vitro Determination of Efflux by ABCB1, Human P-Glycoprotein (Pgp)
MDCKII cells stably expressing human wild-type ABCB1 (Pgp) are obtained from the Netherlands Cancer Institute (Amsterdam, The Netherlands). MDCK cells are maintained as described previously (Desai et al., Mol Pharm 10:1249-1261, 2013).
The assay is essentially conducted as described previously (Desai et al., Mol Pharm 10:1249-1261, 2013). Transport is measured in both directions across uninhibited and inhibited cell monolayers using a substrate concentration of 5 μM diluted from a 10 mM DMSO stock solution (final DMSO concentration of 0.05%) and a single 60-min time interval. […] The apparent permeability coefficients (Papp) are estimated as the slope of the mass transported per 60 min relative to the total recovered mass. The basal-to-apical (B-A)/apical-to-basal (A-B) Papp ratios are calculated in the absence or presence of inhibitor in each cell line for net efflux ratio (NER). The NER of the compound of Example 1 for efflux by Pgp is determined to be 1.7.

Series [2] addresses T2, hCGRP (human calcitonin gene-related peptide) receptor (Homo sapiens, UniProt O60894+Q16602).
T2 construct: Cultured SK-N-MC neuroblastoma cells that endogenously express the hCGRP receptor (ATCC); host or cells: SK-N-MC neuroblastoma cells
Kind of series: Inhibition of cAMP production by CGRP receptor antagonists in SK-N-MC cells (HTRF). Particulars: 0.8 nM human CGRP challenge, agonist-corrected IC50, mean±SEM, n=11, read-out: Kb measured at human CGRP. The class given is cell-based. From the text:
Inhibition of cAMP Production by CGRP Receptor Antagonists
The hCGRP (human calcitonin gene-related peptide) receptor is functionally coupled to the Gas proteins. Stimulation of hCGRP results in an increased synthesis of intracellular cAMP and can be blocked by the addition of receptor antagonists. Receptor activity is thus a reflection of the amount of cAMP present within cells which can be detected using standard in vitro technology.
Cultured SK-N-MC neuroblastoma cells that endogenously express the hCGRP receptor (ATCC) are grown in Eagle's Minimum essential medium (HYCLONE™) supplemented with 10% heat-inactivated Fetal bovine serum (FBS; GIBCO®), Non-Essential Amino Acids (GIBCO®), 1 mM sodium pyruvate, 2 mM L-glutamine, 100 U/mL of penicillin, and 10 μg/mL of streptomycin to about 70% confluency. […]
The amount of intracellular cAMP is quantitated using HTRF technology (Cisbio) as per vendor instructions. […] The HTRF signal is immediately detected using an ENVISION® plate reader (Perkin-Elmer) to calculate the ratio of fluorescence at […]. […] Relative EC50 values are calculated from the top-bottom range of the concentration response curve using a four-parameter logistic curve fitting program (ACTIVITYBASE® v5.3.1.22 or GENEDATA SCREENER® v12.0.4), and Kb values are estimated as agonist-corrected IC50 values using the equation: Kb=(IC50)/[1+([Agonist]/EC50)]. […]

The nature of series [3]: In vivo determination of plasma and brain concentrations and unbound brain-to-plasma partition coefficient (Kp,uu,brain) in rats. The note with it: for concentration at 1 h / concentration at 3 h: male, Sprague-Dawley, oral, 10 mg/kg. As to the method:
In Vivo Determination of Unbound Brain-to-Plasma Partition Coefficient (Kp,uu,brain) in Rats
Unbound brain-to-plasma partition coefficient (Kp,uu,brain) is one of the key pharmacokinetic parameter for evaluating a compound's ability to cross the blood-brain barrier (BBB) (Hammarlund-Udenaes, M.; Friden, M.; Syvanen, S.; Gupta, A. On the Rate and Extent of Drug Delivery to the Brain. Pharm. Res. 2008, 25 (8), 1737-1750).
Animal studies are performed under protocols approved by the Covance Institutional Animal Care and Use Committee. Male Sprague-Dawley rats weighing 250-350 g are obtained from Harlan Sprague Dawley Inc. (Indianapolis, Ind.). Animals have access to food and water ad libitum before and during the study.
Animals each receive 10 mg/kg of the CGRP receptor antagonist compound of Example 1, administered orally in 10 ml/kg of hydroxyethylcellulose 1% w/v/polysorbate 80 0.25% v/v/Antifoam 1510-US 0.05% v/v/in purified water (probe sonicated).
Three animals per time point are used. […] The blood samples are treated with K3-EDTA anticoagulant, and plasma is obtained by centrifugation at 1600 g for 10 minutes. The brain samples are weighed and homogenized, without perfusion. All samples are stored at −70° C. until analysis by LC-MS/MS to determine the concentration of the compound of Example 1 in plasma and brain at each time point.
Kp,uu,brain is calculated for each time point from the expression below where individual components are derived from a combination of in vitro and in vivo measurements carried out as described above:
[formula] where Ctotal,brain, Cu,brain, Ctotal,plasma and Cu,plasma are total and unbound brain and plasma concentrations, and fu,brain and fu,plasma are fractions unbound in brain and plasma, respectively.

Series [4] can be described thus: Rat plasma and brain homogenate protein binding by equilibrium dialysis. The class given is in vitro ADME. The procedure: Determination of Plasma and Brain Protein Binding:
Rat plasma and brain homogenate protein in vitro binding is determined using equilibrium dialysis, as described elsewhere [Zamek-Gliszczynski et al., J Pharm Sci, 101:1932-1940, 2012]. The results are reported as fraction unbound in plasma (fu,plasma) and brain (fu,brain), which are then utilized to calculate Kp,uu,brain, as described in Table 1. Rat fu,plasma and fu,brain of the compound of Example 1 are determined to be 0.071 and 0.043, respectively.
(In general: In equilibrium dialysis only unbound substance equilibrates across the membrane.)

The structures appear in SMILES notation. Read-outs that look alike come from different tables or passages of the source.

T2 sequence (Q16602 23-461): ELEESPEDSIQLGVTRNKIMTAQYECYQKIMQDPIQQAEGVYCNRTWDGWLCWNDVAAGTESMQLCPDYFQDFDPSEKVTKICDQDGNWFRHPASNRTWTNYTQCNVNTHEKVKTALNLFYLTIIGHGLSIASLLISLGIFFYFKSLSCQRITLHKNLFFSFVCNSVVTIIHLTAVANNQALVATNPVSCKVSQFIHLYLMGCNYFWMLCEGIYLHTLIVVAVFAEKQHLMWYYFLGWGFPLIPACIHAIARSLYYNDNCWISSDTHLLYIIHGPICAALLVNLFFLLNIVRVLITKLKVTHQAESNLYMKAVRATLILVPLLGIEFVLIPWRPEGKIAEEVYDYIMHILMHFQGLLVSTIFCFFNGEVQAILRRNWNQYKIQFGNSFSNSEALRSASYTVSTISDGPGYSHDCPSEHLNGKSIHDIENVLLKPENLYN
T2 sequence (O60894 27-148): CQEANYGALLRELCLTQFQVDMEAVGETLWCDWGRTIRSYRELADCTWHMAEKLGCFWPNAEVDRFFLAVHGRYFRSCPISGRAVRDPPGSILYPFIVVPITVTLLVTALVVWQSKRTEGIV
T1 sequence (P08183 whole entry): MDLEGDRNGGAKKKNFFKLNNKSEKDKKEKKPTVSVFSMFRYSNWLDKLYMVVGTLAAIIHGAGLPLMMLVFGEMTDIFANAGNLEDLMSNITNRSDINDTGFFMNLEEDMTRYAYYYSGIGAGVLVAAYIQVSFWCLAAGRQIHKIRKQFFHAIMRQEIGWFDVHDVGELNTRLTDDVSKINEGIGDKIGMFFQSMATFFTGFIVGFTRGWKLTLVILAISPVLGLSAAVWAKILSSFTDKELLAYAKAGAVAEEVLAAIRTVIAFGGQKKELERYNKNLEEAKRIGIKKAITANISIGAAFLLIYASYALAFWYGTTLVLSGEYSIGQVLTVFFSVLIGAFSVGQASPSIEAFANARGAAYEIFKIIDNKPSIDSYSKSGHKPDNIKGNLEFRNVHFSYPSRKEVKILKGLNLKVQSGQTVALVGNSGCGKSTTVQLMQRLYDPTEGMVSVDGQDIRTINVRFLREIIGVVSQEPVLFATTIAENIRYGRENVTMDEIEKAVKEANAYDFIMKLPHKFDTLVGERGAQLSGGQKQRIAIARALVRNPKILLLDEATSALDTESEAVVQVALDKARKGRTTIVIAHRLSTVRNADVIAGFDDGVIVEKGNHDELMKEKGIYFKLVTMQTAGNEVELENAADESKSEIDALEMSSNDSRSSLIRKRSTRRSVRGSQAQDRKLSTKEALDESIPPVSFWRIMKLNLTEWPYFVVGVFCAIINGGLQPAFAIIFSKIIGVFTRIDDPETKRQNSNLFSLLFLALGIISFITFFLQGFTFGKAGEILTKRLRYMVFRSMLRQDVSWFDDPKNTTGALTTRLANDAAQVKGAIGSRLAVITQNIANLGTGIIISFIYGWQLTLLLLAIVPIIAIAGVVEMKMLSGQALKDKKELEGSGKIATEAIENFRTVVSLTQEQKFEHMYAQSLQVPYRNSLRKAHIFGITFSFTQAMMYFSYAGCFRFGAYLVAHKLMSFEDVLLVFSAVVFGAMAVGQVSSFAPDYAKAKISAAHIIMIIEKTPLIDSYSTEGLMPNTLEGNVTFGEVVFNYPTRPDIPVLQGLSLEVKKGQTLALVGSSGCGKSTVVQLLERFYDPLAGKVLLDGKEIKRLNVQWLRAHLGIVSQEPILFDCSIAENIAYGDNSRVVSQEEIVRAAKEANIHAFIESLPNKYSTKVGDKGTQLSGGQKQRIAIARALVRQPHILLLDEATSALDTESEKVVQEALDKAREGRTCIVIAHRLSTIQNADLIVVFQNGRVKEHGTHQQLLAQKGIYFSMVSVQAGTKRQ

Take `Cc1cc(OCc2ccc([C@@H](C)[C@]3(C)CC(=O)NC3=O)cc2)cc(C2CC2)n1` [Example 1, (3S)-3-[(1R)-1-[4-[(2-cyclopropyl-6-methyl-4-pyridyl)oxymethyl]phenyl]ethyl]-3-methyl-pyrrolidine-2,5-dione]: the “net efflux ratio (NER) for efflux by Pgp” value in series [1] stood at 1.7. Further, the Kb (commonly the equilibrium dissociation constant of an antagonist, usually derived from a functional assay) in series [2] stood at 0.57 ± 0.25 nM. Moreover, the “Unbound brain conc. (Cu,brain)” value in series [3] (1.0 hr post 10 mg/kg oral dose, male Sprague-Dawley rats, using rat fu,brain 0.043, mean ± SD) is 41 ± 15 nM; in series [3] (3.0 hr post 10 mg/kg oral dose, male Sprague-Dawley rats, using rat fu,brain 0.043, mean ± SD) it was 22 ± 5 nM. In addition, the concentration at 1 h in series [3] (rat, brain, 1.0 hr post 10 mg/kg oral dose, mean ± SD, read-out: Total brain conc. (Ctotal,brain)) turned out to be 962 ± 341 nM; in series [3] (rat, brain, 1.0 hr post 10 mg/kg oral dose, using rat fu,brain 0.043, mean ± SD, read-out: Unbound brain conc. (Cu,brain)), 41 ± 15 nM; in series [3] (rat, plasma, 1.0 hr post 10 mg/kg oral dose, mean ± SD, read-out: Total plasma conc. (Ctotal,plasma)) it was 655 ± 183 nM; in series [3] (rat, plasma, 1.0 hr post 10 mg/kg oral dose, using rat fu,plasma 0.071, mean ± SD, read-out: Unbound plasma conc. (Cu,plasma)), 47 ± 13 nM. Also, the concentration at 3 h in series [3] (rat, brain, 3.0 hr post 10 mg/kg oral dose, mean ± SD, read-out: Total brain conc. (Ctotal,brain)) turned out to be 515 ± 111 nM; in series [3] (rat, brain, 3.0 hr post 10 mg/kg oral dose, using rat fu,brain 0.043, mean ± SD, read-out: Unbound brain conc. (Cu,brain)) it was 22 ± 5 nM; in series [3] (rat, plasma, 3.0 hr post 10 mg/kg oral dose, mean ± SD, read-out: Total plasma conc. (Ctotal,plasma)) it was 368 ± 127 nM; in series [3] (rat, plasma, 3.0 hr post 10 mg/kg oral dose, using rat fu,plasma 0.071, mean ± SD, read-out: Unbound plasma conc. (Cu,plasma)) it was 26 ± 9 nM. In addition, the Kp uu at 1 h in series [3] (rat, brain/plasma, 1.0 hr post 10 mg/kg oral dose, male Sprague-Dawley rats, mean ± SD) was 0.89 ± 0.17. The Kp uu at 3 h in series [3] (rat, brain/plasma, 3.0 hr post 10 mg/kg oral dose, male Sprague-Dawley rats, mean ± SD) came to 0.93 ± 0.43. The same compound yielded a fraction unbound in brain (fu,brain) in series [4] (rat brain homogenate) of 0.043. Besides, the fraction unbound – broadly, the share of the substance not bound to proteins or other matrix – in series [4] (rat plasma, read-out: fraction unbound in plasma (fu,plasma)) is 0.071.

These data come from patent US10336726B2, “3-methyl-pyrrolidine-2,5-dione derivatives useful as CGRP receptor antagonists” (Eli Lilly and Company, priority 2017, dated 2019).
